# Source: patent publication US5143920A, “Substituted 4-aminoquinoline derivatives as gastric secretion inhibitors” (SmithKline Beckman Intercredit B.V., priority 1988, dated 1992)
# pIC50: −log10 of the molar value.
# Target: T1, H^+ K^+ ATPase (Sus scrofa, UniProt P19156)
# T1 construct: Lyophilised gastric vesicles were prepared from pig fundic mucosa; from tissue; host or cells: pig fundic mucosa (lyophilised gastric vesicles)
# Assay: K^+ -stimulated ATPase activity in lyophilised gastric vesicles (H^+ K^+ ATPase Activity)
# Type: biochemical
# Conditions: inhibition of K^+ -stimulated ATPase activity, lyophilised gastric vesicles from pig fundic mucosa, 37° C., pH 7.0, 1 mM KCl, 2 mM Na2 ATP, 30 minutes
# Protocol: The effects of a single high concentration ([…]) of a compound of structure (I) on K^+ -stimulated ATPase activity in lyophilised gastric vesicles was determined. Preferred compounds of structure (I) were also tested over a range of concentrations to determine IC50 values.
# Lyophilised gastric vesicles were prepared from pig fundic mucosa after the method of Keeling et. al. (Biochem. Pharmacol, 34, 2967, 1985).
# K^+ -stimulated ATPAse activity was determined at 37° C. in the presence of the following: 10 mM Pipes/Tris buffer pH 7.0, 2 mM MgSO4, 1 mM KCl, 2 mM Na2 ATP and […] lyophilised gastric vesicles. After incubation for 30 minutes, the inorganic phosphate hydrolysed from ATP was determined by the method of Yoda and Hokin (Biochem. Biophys, Res. Commun. 40, 880, 1970).
# Compounds of structure (I) were dissolved in dimethylsulphoxide which up to the highest concentration used had no effect on K^+ -stimulated ATPase activity.
# The effect of the highest concentration of each compound of structure (I) on the recovery of a standard amount of inorganic phosphate was also determined.
# T1 sequence (P19156 2-1034 limits assumed): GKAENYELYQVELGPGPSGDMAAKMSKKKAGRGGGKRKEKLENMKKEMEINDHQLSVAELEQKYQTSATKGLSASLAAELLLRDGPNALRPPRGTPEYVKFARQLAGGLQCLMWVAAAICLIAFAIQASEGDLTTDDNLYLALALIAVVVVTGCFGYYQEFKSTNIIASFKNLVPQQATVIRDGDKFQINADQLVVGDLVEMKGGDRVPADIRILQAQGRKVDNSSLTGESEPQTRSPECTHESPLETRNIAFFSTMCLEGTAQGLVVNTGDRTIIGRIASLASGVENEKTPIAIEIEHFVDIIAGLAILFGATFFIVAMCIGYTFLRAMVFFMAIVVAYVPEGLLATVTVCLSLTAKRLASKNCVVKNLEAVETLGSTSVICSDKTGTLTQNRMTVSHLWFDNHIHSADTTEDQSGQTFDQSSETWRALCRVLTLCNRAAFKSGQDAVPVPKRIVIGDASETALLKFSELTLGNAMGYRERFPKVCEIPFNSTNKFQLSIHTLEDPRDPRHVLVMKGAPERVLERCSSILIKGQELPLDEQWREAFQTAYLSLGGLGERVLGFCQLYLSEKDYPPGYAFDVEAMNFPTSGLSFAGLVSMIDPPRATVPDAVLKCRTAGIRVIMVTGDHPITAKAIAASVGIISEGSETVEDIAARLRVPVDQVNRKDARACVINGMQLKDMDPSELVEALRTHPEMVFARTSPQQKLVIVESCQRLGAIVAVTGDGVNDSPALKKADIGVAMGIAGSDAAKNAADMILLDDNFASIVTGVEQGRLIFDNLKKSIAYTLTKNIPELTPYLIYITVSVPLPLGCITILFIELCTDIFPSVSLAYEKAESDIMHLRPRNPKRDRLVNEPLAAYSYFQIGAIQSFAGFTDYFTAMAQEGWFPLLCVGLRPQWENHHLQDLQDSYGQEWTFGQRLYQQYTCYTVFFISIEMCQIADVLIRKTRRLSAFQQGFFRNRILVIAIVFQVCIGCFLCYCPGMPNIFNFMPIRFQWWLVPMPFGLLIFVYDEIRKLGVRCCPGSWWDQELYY
# T1 sequence (P18434 whole entry partner): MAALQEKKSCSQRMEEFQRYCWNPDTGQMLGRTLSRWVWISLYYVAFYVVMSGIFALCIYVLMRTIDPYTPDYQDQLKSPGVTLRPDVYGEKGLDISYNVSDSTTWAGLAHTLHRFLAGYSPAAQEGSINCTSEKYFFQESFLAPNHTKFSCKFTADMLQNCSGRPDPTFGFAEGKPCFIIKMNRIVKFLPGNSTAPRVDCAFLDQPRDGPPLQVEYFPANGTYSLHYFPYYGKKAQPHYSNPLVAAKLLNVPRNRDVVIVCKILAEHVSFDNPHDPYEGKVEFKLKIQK
row,pIC50,SMILES
1,7.10,"CCOC(=O)c1cnc2c(OC)cccc2c1Nc1ccc(O)cc1C [Compound 9, Ethyl 8-methoxy-4-(4-hydroxy-2-methylphenylamino)-quinoline-3-carboxylate]"
2,6.80,"COc1cccc2c(Nc3ccc(O)cc3C)c(C(=O)C(C)C)cnc12 [Compound 12, 3-isobutyryl-4-(4-hydroxy-2-methylphenylamino)-8-methoxyquinoline]"
3,7.15,"CCCC(=O)c1cnc2ccc(O)cc2c1Nc1ccc(O)cc1C [Compound 16, 3-butyryl-4-(4-hydroxy-2-methylphenylamino)-6-hydroxyquinoline]"
4,5.89,"CCCC(=O)c1cnc2c(OC)cc(O)cc2c1Nc1ccc(O)cc1C [Compound 17, 3-butyryl-4-(4-hydroxy-2-methylphenylamino)-6-hydroxy-8-methoxyquinoline]"
